From PubChem BioAssay (NCI)
Converted amounts (≈) assume the structure as drawn.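 A five-concentration, 48-hour dose response in 96-well plates underlies each endpoint, interpolated linearly between surrounding concentrations. The concentration for 50% growth inhibition is given as GI50. At the TGI there is no net growth.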

Tests used:
Assay in all cases: growth of human tumour cells (NCI), 48 h
SR leukemia = tested on: SR leukemia
SN12C renal = tested on: SN12C renal
OVCAR-4 ovarian = tested on: OVCAR-4 ovarian
HT29 colon = tested on: HT29 colon
SNB-19 CNS = tested on: SNB-19 CNS
EKVX NSCLC = tested on: EKVX NSCLC
OVCAR-5 ovarian = tested on: OVCAR-5 ovarian
SK-MEL-2 melanoma = tested on: SK-MEL-2 melanoma
MALME-3M melanoma = tested on: MALME-3M melanoma
MDA-MB-435 = tested on: MDA-MB-435

SMILES	TGI (SR leukemia)	TGI (SN12C renal)	TGI (OVCAR-4 ovarian)	TGI (HT29 colon)	TGI (SNB-19 CNS)	TGI (EKVX NSCLC)	TGI (OVCAR-5 ovarian)	TGI (SK-MEL-2 melanoma)	TGI (MALME-3M melanoma)	TGI (MDA-MB-435)	GI50 (SK-MEL-2 melanoma)	GI50 (SN12C renal)	GI50 (OVCAR-4 ovarian)	GI50 (MALME-3M melanoma)	GI50 (HT29 colon)	GI50 (SNB-19 CNS)	GI50 (EKVX NSCLC)	GI50 (OVCAR-5 ovarian)
CCNCCNC(=O)c1ccc(Br)cc1	> 100 µM	> 100 µM	> 100 µM	> 100 µM	> 100 µM	> 100 µM	> 100 µM											
O=c1[nH]c(=O)n(C2CC(O)C(CO)O2)cc1C#Cc1cc(F)cc(F)c1 (stereo not given)		> 100 µM	> 100 µM	> 100 µM	> 100 µM	> 100 µM	> 100 µM	> 100 µM	> 100 µM									
CCN(CC)C1=Nc2ccccc2-n2c(C)cnc2C1		> 100 µM	> 100 µM	> 100 µM	> 100 µM	> 100 µM	> 100 µM	> 100 µM	> 100 µM	> 100 µM								
Cc1cc2[nH]c3c(C#N)c(-c4ccccc4)c(CN4CCOCC4)c(=O)n3c2cc1C		> 100 µM	> 100 µM		> 100 µM	> 100 µM	> 100 µM	> 100 µM	> 100 µM	> 100 µM								
S=C1SC(c2ccc(Cl)cc2)(c2ccc(Cl)cc2)c2ccccc21	89.9 µM	> 100 µM	> 100 µM	> 100 µM	> 100 µM	> 100 µM	> 100 µM		> 100 µM	> 100 µM								
O=C(O)CNS(=O)(=O)c1ccc(NC(=O)Nc2ccccc2)cc1		> 100 µM	> 100 µM	> 100 µM	> 100 µM	> 100 µM	> 100 µM	> 100 µM	> 100 µM									
C/C(=N/N)c1ccc2[nH]c3c(C)cc([N+](=O)[O-])c(C)c3c2c1		15.8 µM	38.3 µM	90.1 µM	31.8 µM	66.1 µM		26.3 µM	16.4 µM									
O=C(c1ccccc1)c1c(CNCc2ccccc2)n(C(=O)c2ccccc2)c2ccccc12	80.7 µM		> 100 µM	> 100 µM	> 100 µM		> 100 µM	> 100 µM	> 100 µM									
Nc1ccc(N)c2c1C(=O)c1c(N)ccc(N)c1C2=O		> 100 µM	97.4 µM	> 100 µM	> 100 µM	> 100 µM	> 100 µM	> 100 µM	> 100 µM									
CCn1cnc2c(NC(C)=O)ncnc21		> 100 µM	> 100 µM	> 100 µM	> 100 µM	> 100 µM	> 100 µM	> 100 µM	> 100 µM	> 100 µM								
NC(N)=Nc1nc2ccccc2[nH]1		> 150 µg/mL	55.5 µg/mL	> 150 µg/mL	> 150 µg/mL	> 150 µg/mL	> 150 µg/mL	> 150 µg/mL	47.4 µg/mL		95 µg/mL (≈ 542 µM)	72.9 µg/mL (≈ 416 µM)	22.1 µg/mL (≈ 126 µM)	47.4 µg/mL (≈ 271 µM)	51.3 µg/mL (≈ 293 µM)	137 µg/mL (≈ 782 µM)	57.4 µg/mL (≈ 328 µM)	27.8 µg/mL (≈ 159 µM)
CP(C)(=S)P(C)(C)=S	> 100 µM	> 100 µM	> 100 µM	> 100 µM	> 100 µM	> 100 µM	> 100 µM	> 100 µM	> 100 µM									
